This note sets out measurements from patent US20230151024A1, “STING AGONISTIC COMPOUND” (ONO PHARMACEUTICAL CO., LTD., priority 2020, published 2023).

The subject of assay [1] is BTK, KDR, each subtype of PKCα to t, each CDK of CDK2 to 9, FAK, TIE2, RAF1 and BRAF. Briefly: Evaluation of inhibitory activity against various kinases (mobility shift, LabChip). Particulars: 4 μmol/L test substance solution at 4 times the final concentration. The assay is classed as biochemical. As for the experimental part: 4 μmol/L of the test substance solution (the compound in the present invention produced in Example 1) (at 4 times the final concentration) was prepared by dissolving it to the assay buffer (20 mmol/L HEPES, 0.01% Triton X-100, 1 mmol/L DTT, pH 7.5). 4 μmol/L of the substrate/ATP/metal solution (at 4 times the final concentration) was prepared by dissolving it to the kit buffer (20 mmol/L HEPES, 0.01% Triton X-100, 5 mmol/L DTT, pH 7.5). Various kinase solutions at twice the final concentration were prepared by dissolving them to the assay buffer. 5 μL of the test substance solution, 5 μL of the substrate/ATP/metal solution and 10 μL of the kinase solution were mixed in wells of a polypropylene 384-well plate, and the mixture thereof was reacted at room temperature for 1 to 5 hours. The reaction was stopped by adding 70 μL of the termination buffer (QuickScout Screening Assist MSA; Carna Biosciences). The substrate peptide and phosphorylated peptide in the reaction solution were separated and quantified by LabChip system (Perkin Elmer). The kinase reaction was evaluated based on the product ratio (P/(P+S)) calculated from the peak height (S) of the substrate peptide and the peak height (P) of the phosphorylated peptide. The various kinases used in this evaluation are as follows:
BTK, KDR, each subtype of PKCα to t, each CDK of CDK2 to 9, FAK, TIE2, RAF1 and BRAF.

Another assay addresses T1, IDO1 (Homo sapiens, UniProt P14902).
T1 construct: purchased BPS Bioscience
Description: Evaluation of IDO1 inhibitory activity (IDO1 Fluorogenic Inhibitor Screening Assay Kit). The assay is classed as biochemical. Particulars: compound solutions of 0.6, 2, 6, 20, 60 and 200 μmol/L added. As for the experimental part:
The evaluation of IDO1 inhibitory activity was carried out using the IDO1 Fluorogenic Inhibitor Screening Assay Kit (BPS Bioscience). Specifically, IDO1 Fluorogenic Reaction Solution was dissolved, of which 180 μL were added to each well. Then, 10 μL of the compounds at the respective concentrations of 0.6, 2, 6, 20, 60 and 200 μmol/L were added thereto. Further, after adding 10 μL of IDO1 His-Tag solution thereto, and the mixture thereof was incubated at room temperature for 1 hour, and then 20 μL of Fluorescence Solution was added thereto, and the mixture thereof was incubated at 37° C. for 4 hours. After standing them at room temperature for 10 minutes, the fluorescence was measured using a microplate reader (excitation: 400 nm, emission: 510 nm).

The subject of assay [2] is colon cancer cell line MC38. Description: Anti-tumor effect in a subcutaneously colon cancer cell line MC38 tumor-bearing mouse model (Example 17). The assay is classed as in vivo, mice (C57/BL6). Particulars: 3 mg/kg, administered 7 days after MC38 transplantation, measured until Day 26. The protocol:
Colon cancer cell line MC38 derived from C57/BL6 mice were subcutaneously transplanted to right flank region of syngeneic mice (C57/BL6, female, 6 weeks old (Charles River Japan)) (herein, the day of transplantation was designated as Day 0) to prepare subcutaneously MC38 tumor-bearing mice. Seven days after transplantation, the subcutaneously MC38 tumor-bearing mice were grouped based on tumor volume, and the Vehicle group (n=8) and group to which the compound shown in Example 1 (3 mg/kg, n=6) was administered were set. The changes in tumor volume were continuously measured until 26 days after transplantation (Day 26). The tumor volume was calculated by the following formula:
[Tumor volume (mm^3)]=[major axis (mm)]×[minor axis (mm)]^2×0.5

The test system of the next assay is THP1-Dual-STING KO cells. Briefly: Effects on THP1-Dual-STING KO cells (activity of the IRF pathway). Particulars: STING gene homozygous deficient THP1-Dual cells, about 24 hours. The assay is classed as cell-based. As for the experimental part:
STING gene homozygous deficient THP1-Dual cells (THP1-Dual-STING KO cells (Invivogen) were suspended in RPMI medium to prepare 2×10^6 cells/mL cell suspension. 50 μL of cell suspensions were dispensed into a 96-well plate, to which 50 μL of 6 to 20,000 nM compound solutions were further added, followed by incubation at 37° C. for about 24 hours. 10 μL of the cell suspensions were collected from each well, which were mixed with 50 μL of Quanti-luc (Invivogen), and then the activity of the IRF pathway was measured by detecting luminescence using a microplate reader.

T1 sequence (P14902 whole entry): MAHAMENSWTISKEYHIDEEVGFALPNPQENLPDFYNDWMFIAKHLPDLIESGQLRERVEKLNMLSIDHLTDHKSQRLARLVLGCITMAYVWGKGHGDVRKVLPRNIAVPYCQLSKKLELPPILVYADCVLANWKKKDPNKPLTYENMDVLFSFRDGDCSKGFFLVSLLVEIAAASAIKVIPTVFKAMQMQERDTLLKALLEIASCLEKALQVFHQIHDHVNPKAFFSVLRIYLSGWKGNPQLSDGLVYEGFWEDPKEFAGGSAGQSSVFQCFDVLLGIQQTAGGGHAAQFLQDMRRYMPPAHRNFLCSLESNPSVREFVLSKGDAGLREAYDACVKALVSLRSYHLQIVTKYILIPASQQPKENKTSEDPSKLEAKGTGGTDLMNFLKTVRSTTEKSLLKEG

For the compound `COC(=O)c1cc(-c2ncc(-c3cn[nH]c3)c3onc(N)c23)c(F)cc1N` [Example 1, methyl 2-amino-5-(3-amino-7-(1H-pyrazol-4-yl)isoxazolo[4,5-c]pyridin-4-yl)-4-fluorobenzoate], the “inhibitory activity against various kinases” value in assay [1] is reported as “no significantly inhibit activities”. Further, the IDO1 inhibitory activity result on IDO1 is recorded as “no IDO1 inhibitory activity”. Besides, the “tumor growth (tumor volume)” value in assay [2] was “almost completely suppressed the tumor growth”. The IRF activating effect entry in the assay on THP1-Dual-STING KO cells is on record as “no IRF activating effect”.
